# Calls of active or inactive are those of the source. No cut-off for these calls is given here.
# Biological target: T1, Adrenergic receptor alpha-2 (Homo sapiens, UniProt P08913+P18825+P18089)
# T1 sequence (P08913 whole entry): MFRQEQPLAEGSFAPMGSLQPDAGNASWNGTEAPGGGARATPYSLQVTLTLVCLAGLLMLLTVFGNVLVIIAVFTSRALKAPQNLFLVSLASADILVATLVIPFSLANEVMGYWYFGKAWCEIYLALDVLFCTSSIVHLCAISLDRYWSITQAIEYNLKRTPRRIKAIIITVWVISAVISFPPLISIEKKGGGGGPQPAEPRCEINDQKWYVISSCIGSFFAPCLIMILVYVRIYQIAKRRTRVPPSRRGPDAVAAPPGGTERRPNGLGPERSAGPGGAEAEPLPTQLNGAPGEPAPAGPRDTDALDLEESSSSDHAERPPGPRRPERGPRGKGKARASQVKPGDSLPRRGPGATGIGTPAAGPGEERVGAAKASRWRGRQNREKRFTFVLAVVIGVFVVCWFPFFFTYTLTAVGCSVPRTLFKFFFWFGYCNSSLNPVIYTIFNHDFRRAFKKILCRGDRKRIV
# T1 sequence (P18825 whole entry): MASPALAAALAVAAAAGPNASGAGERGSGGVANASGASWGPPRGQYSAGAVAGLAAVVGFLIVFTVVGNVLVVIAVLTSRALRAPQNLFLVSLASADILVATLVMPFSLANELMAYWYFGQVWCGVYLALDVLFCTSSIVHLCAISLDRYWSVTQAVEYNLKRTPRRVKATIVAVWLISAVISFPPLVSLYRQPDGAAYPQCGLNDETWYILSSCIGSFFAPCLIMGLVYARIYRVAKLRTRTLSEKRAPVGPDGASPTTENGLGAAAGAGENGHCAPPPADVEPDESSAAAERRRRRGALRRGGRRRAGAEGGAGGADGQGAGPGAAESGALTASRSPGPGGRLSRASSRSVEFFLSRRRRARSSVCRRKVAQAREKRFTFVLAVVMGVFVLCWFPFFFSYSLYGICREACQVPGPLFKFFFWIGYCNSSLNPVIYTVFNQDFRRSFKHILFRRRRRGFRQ
# T1 sequence (P18089 whole entry): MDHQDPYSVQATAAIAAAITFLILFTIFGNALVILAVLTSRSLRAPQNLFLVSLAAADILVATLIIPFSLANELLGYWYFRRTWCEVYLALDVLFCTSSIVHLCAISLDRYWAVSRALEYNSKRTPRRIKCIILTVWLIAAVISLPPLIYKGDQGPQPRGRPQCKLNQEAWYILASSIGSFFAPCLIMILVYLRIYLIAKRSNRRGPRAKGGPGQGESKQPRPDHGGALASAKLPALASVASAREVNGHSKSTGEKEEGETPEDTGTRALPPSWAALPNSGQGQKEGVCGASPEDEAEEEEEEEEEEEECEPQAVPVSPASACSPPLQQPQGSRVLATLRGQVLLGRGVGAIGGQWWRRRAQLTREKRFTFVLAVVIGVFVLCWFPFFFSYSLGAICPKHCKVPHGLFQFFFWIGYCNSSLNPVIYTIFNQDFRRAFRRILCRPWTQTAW
# Test: Displacement of [3H]RX821002 from alpha-2 adrenergic receptor in human brain pre-frontal cortex neural membranes after 30 mins by liquid scintillation counting method
row,SMILES,pKi
1,CCCN1C(N)=NCc2ccccc21,5.11
2,COC1(C2=NCCN2)COc2ccccc2O1 (stereo not drawn),8.85
3,CCCN1C(N)=NCc2cccnc21,4.99
4,c1ccc(CNC2=NCc3cccnc3N2Cc2ccc3c(c2)OCO3)cc1,5.15
5,OCCN1C(NCc2ccccc2)=NCc2cccnc21,5.07
6,CCCN1C(NCc2ccccc2)=NCc2cccnc21,5.05
7,c1ccc(CNC2=NCc3ccccc3N2c2ccccc2)cc1,4.92
8,CN(C)c1ccc2c(c1)CCN=C(NCc1ccc3c(c1)OCO3)N2,6.14
9,OCCNC1=NCCc2ccccc2N1,5.81
10,NC1=NCc2ccccc2N1c1ccccc1,5.85
11,OCCNC1=NCCc2cc3c(cc2N1)OCO3,5.5
12,c1ccc(CNC2=NCc3ccccc3N2Cc2ccc3c(c2)OCO3)cc1,6.55
13,CCCN1C(NCc2ccccc2)=NCc2ccccc21,5.29
14,CN(C)c1ccc2c(c1)CCN=C(NCCO)N2,4.99
15,CN(C)c1ccc2c(c1)CCN=C(NCc1ccco1)N2,5.36
16,c1ccc2c(c1)CCN=C(NCc1ccc3c(c1)OCO3)N2,6.64

# Biological target: Adrenergic receptor alpha-2 (Homo sapiens) (UniProt P08913+P18825+P18089)
# Test: Antagonist activity at alpha-2 adrenergic receptor in human brain prefrontal cortex neural membranes assessed as inhibition of [35S]GTPgammaS binding after 120 mins by liquid scintillation counting
# Assay type: functional, tissue-based
row,SMILES,inhibition
1,c1ccc(CNC2=NCc3cccnc3N2Cc2ccc3c(c2)OCO3)cc1,Active
2,c1ccc2c(c1)CCN=C(NCc1ccc3c(c1)OCO3)N2,Active

# Source: ChEMBL document CHEMBL3870303, “Substituted conformationally restricted guanidine derivatives: Probing the α2-adrenoceptors' binding pocket” (Eur J Med Chem, 2016)
